This experiment deals with B10.Br mouse tailskin grafted on male C57BL/10 mice. As to the kind of experiment: Skin graft rejection time (transplantation and evaluation of graft rejection). Type of experiment: in vivo. The conditions noted are these: i.p. from day of grafting until rejection, Example 2 30 mpk/day q.d., Example 3 10 mpk/day q.d.; for Skin Graft Rejection Time, Ex. #1 Rejection: experiment #1; for Skin Graft Rejection Time, Ex. #3 Rejection: experiment #3. An excerpt:
Transplantation and Evaluation of Graft Resection
The method of skin grafting used has been previously described [D. Steinmuller, Skin Grafting. Surgical Techniques in Immunology, Methods Enzymol. […] Briefly, a tailskin from an 8–12 week old male B10.Br mouse was removed and stored in cold saline. Male C57BL/10 mice were anesthetized, and their backs were shaved. The backs were scrubbed with alcohol, and a 1 cm^2 piece of skin was removed. A similar size piece of skin was cut from the tailskin of the B10.Br mouse and placed in the excised area on the C57BL/10 animal's back. A petroleum jelly coated bandage was placed over the graft and held in place by a single surgical staple. Compounds were prepared as a suspension in 0.5% methylcellulose (Sigma, St. Louis, Mo.), and 0.025% Tween® 20 (Sigma). The compounds were administered by i.p. injection in a volume of 0.1 ml beginning on the day of skin grafting and continuing until transplant rejection. […] Compounds were administered alone or as combinations of a COX-2 and 5-LO inhibitor. Bandages were left in place until 8 days post grafting. At that time they were removed, and the grafts were observed daily or signs of rejection. Rejection was determined by complete blackening or scabbing of the grafted skin.

This note sets out measurements from patent US7132441B2, “Immunosuppressive effects of administration of a cyclooxygenase-2 inhibitor and a 5-lipoxygenase inhibitor” (G.D. Searle & Co., priority 1996, dated 2006).

SMILES strings stand for the structures.

Regarding `COc1ccc(-c2cc(C(F)F)nn2-c2ccc(S(N)(=O)=O)cc2)cc1F` [Example 2, 4-[5-(3-Fluoro-4-methoxyphenyl)-3-(difluoromethyl)-1H-pyrazol-1-yl]benzenesulfonamide], the “Skin Graft Rejection Time, Ex. #1 Rejection” value is 15.7 days and the “Skin Graft Rejection Time, Ex. #3 Rejection” value is reported as 17.3 days.
Consider `CC(C#Cc1ccc(Oc2ccc(F)cc2)o1)N(O)C(N)=O` (stereo not shown) [Example 3, N′-[3-[5-(4-Fluorophenoxy)furyl-2-yl]-1-methyl-2-propynyl]-N′-hydroxyurea], for which the “Skin Graft Rejection Time, Ex. #1 Rejection” value was 15.0 days and the “Skin Graft Rejection Time, Ex. #3 Rejection” value was determined as 17.0 days.
